# Values of other authors in publication PMC8513935.
# Assay: log P octanol/water from commercial databases, averaged (the ESI)
# Conditions: Octanol (wet), 25 C
row,Compound,"log K of transfer, water to solvent"
1,CCCCCCCCCC,5.88 log10 K
2,CCCC(=O)CCC,2.04 log10 K
3,C/C=C/C,2.31 log10 K

# Further lines, results first:
row,"log K of transfer, water to solvent",Compound
1,4.56 log10 K,CCC1CCCCC1
2,1.72 log10 K,C1CC1
3,5.19 log10 K,CCC(CC)(CC)CC

# Assay: experimental, compiled by the authors from the literature (the ESI cites the sources)
# Conditions: 1,2-Dichloroethane, 25 C
row,"log K of transfer, gas to solvent",Compound
1,3.57 log10 K,CCC1CCCCC1

# Same assay, conditions: Acetonitrile, 25 C
row,"log K of transfer, gas to solvent",Compound
1,2.87 log10 K,CCC1CCCCC1

# Same assay, conditions: Butan-1-ol, 25 C
row,"log K of transfer, gas to solvent",Compound
1,3.44 log10 K,CCC1CCCCC1
2,1.26 log10 K,C1CC1

# Same assay, conditions: Butanone, 25 C
row,"log K of transfer, gas to solvent",Compound
1,4.42 log10 K,CCCCCCCCCC
2,3.53 log10 K,CCC1CCCCC1

# Same assay, conditions: Butyronitrile, 25 C
row,"log K of transfer, gas to solvent",Compound
1,3.35 log10 K,CCC1CCCCC1

# Same assay, conditions: CCl4, 25 C
row,"log K of transfer, gas to solvent",Compound
1,4.08 log10 K,CCC1CCCCC1

# Same assay, conditions: Chlorobenzene, 25 C
row,"log K of transfer, gas to solvent",Compound
1,4.06 log10 K,CCC1CCCCC1

# Same assay, conditions: Chloroform, 25 C
row,"log K of transfer, gas to solvent",Compound
1,3.99 log10 K,CCC1CCCCC1

# Same assay, conditions: Cyclohexanone, 25 C
row,"log K of transfer, gas to solvent",Compound
1,3.55 log10 K,CCC1CCCCC1

# Same assay, conditions: Di-n-butyl ether, 25 C
row,"log K of transfer, gas to solvent",Compound
1,4.12 log10 K,CCCC(=O)CCC

# Same assay, conditions: Dichloromethane, 25 C
row,"log K of transfer, gas to solvent",Compound
1,3.82 log10 K,CCC1CCCCC1

# Same assay, conditions: Ethanol, 25 C
row,"log K of transfer, gas to solvent",Compound
1,3.92 log10 K,CCCCCCCCCC
2,3.27 log10 K,CCC1CCCCC1

# Same assay, conditions: Hexadecane, 25 C
row,Compound,"log K of transfer, gas to solvent"
1,CCCCCCCCCC,4.68 log10 K
2,CCCC(=O)CCC,3.7 log10 K
3,C/C=C/C,1.66 log10 K

# Further lines, results first:
row,"log K of transfer, gas to solvent",Compound
1,3.88 log10 K,CCC1CCCCC1
2,1.31 log10 K,C1CC1
3,4.01 log10 K,CCC(CC)(CC)CC

# Same assay, conditions: Hexane, 25 C
row,"log K of transfer, gas to solvent",Compound
1,5.02 log10 K,CCCCCCCCCC
2,3.97 log10 K,CCC1CCCCC1
3,1.45 log10 K,C1CC1
4,4.31 log10 K,CCC(CC)(CC)CC

# Same assay, conditions: Methanol, 25 C
row,"log K of transfer, gas to solvent",Compound
1,2.96 log10 K,CCC1CCCCC1
2,4.23 log10 K,CCCC(=O)CCC
3,3.15 log10 K,CCC(CC)(CC)CC

# Same assay, conditions: Perfluoroalkane, 25 C
row,"log K of transfer, gas to solvent",Compound
1,2.56 log10 K,CCC1CCCCC1
2,0.888 log10 K,C1CC1

# Same assay, conditions: Propan-1-ol, 25 C
row,"log K of transfer, gas to solvent",Compound
1,3.28 log10 K,CCC1CCCCC1
2,1.15 log10 K,C1CC1

# Same assay, conditions: Propan-2-ol, 25 C
row,"log K of transfer, gas to solvent",Compound
1,3.27 log10 K,CCC1CCCCC1
2,1.16 log10 K,C1CC1

# Same assay, conditions: Propanone, 25 C
row,Compound,"log K of transfer, gas to solvent"
1,CCC1CCCCC1,3.32 log10 K
2,C/C=C/C,1.81 log10 K

# Same assay, conditions: Propionitrile, 25 C
row,"log K of transfer, gas to solvent",Compound
1,3.17 log10 K,CCC1CCCCC1

# Same assay, conditions: Tetrahydrofuran, 25 C
row,"log K of transfer, gas to solvent",Compound
1,3.92 log10 K,CCC1CCCCC1

# Same assay, conditions: Water, 25 C
row,Compound,"log K of transfer, gas to solvent"
1,CCCCCCCCCC,-2.32 log10 K
2,CCCC(=O)CCC,2.25 log10 K
3,C/C=C/C,-0.98 log10 K

# More lines, now with the values ahead:
row,"log K of transfer, gas to solvent",Compound
1,-1.58 log10 K,CCC1CCCCC1
2,-0.55 log10 K,C1CC1
3,-1.63 log10 K,CCC(CC)(CC)CC

# Assay: derived by the authors as gas->solvent minus gas->water (a hypothetical dry solvent; the ESI), not a two-phase measurement
# Conditions: 1,2-Dichloroethane, 25 C
row,"log K of transfer, water to solvent",Compound
1,5.15 log10 K,CCC1CCCCC1

# Same assay, conditions: Acetone, 25 C
row,Compound,"log K of transfer, water to solvent"
1,CCC1CCCCC1,4.9 log10 K
2,C/C=C/C,2.79 log10 K

# Same assay, conditions: Acetonitrile, 25 C
row,"log K of transfer, water to solvent",Compound
1,4.45 log10 K,CCC1CCCCC1

# Same assay, conditions: Butan-1-ol, 25 C
row,"log K of transfer, water to solvent",Compound
1,5.02 log10 K,CCC1CCCCC1
2,1.81 log10 K,C1CC1

# Same assay, conditions: Butanone, 25 C
row,"log K of transfer, water to solvent",Compound
1,6.74 log10 K,CCCCCCCCCC
2,5.11 log10 K,CCC1CCCCC1

# Same assay, conditions: Butyronitrile, 25 C
row,"log K of transfer, water to solvent",Compound
1,4.93 log10 K,CCC1CCCCC1

# Same assay, conditions: CCl4, 25 C
row,"log K of transfer, water to solvent",Compound
1,5.66 log10 K,CCC1CCCCC1

# Same assay, conditions: Chlorobenzene, 25 C
row,"log K of transfer, water to solvent",Compound
1,5.64 log10 K,CCC1CCCCC1

# Same assay, conditions: Chloroform, 25 C
row,"log K of transfer, water to solvent",Compound
1,5.57 log10 K,CCC1CCCCC1

# Same assay, conditions: Cyclohexanone, 25 C
row,"log K of transfer, water to solvent",Compound
1,5.13 log10 K,CCC1CCCCC1

# Same assay, conditions: Di-n-butyl ether, 25 C
row,"log K of transfer, water to solvent",Compound
1,1.87 log10 K,CCCC(=O)CCC

# Same assay, conditions: Dichloromethane, 25 C
row,"log K of transfer, water to solvent",Compound
1,5.4 log10 K,CCC1CCCCC1

# Same assay, conditions: Ethanol, 25 C
row,"log K of transfer, water to solvent",Compound
1,6.24 log10 K,CCCCCCCCCC
2,4.84 log10 K,CCC1CCCCC1

# Same assay, conditions: Hexadecane, 25 C
row,Compound,"log K of transfer, water to solvent"
1,CCCCCCCCCC,7 log10 K
2,CCCC(=O)CCC,1.45 log10 K
3,C/C=C/C,2.64 log10 K

# More lines, now with the values ahead:
row,"log K of transfer, water to solvent",Compound
1,5.45 log10 K,CCC1CCCCC1
2,1.86 log10 K,C1CC1
3,5.64 log10 K,CCC(CC)(CC)CC

# Same assay, conditions: Hexane, 25 C
row,"log K of transfer, water to solvent",Compound
1,7.34 log10 K,CCCCCCCCCC
2,5.55 log10 K,CCC1CCCCC1
3,2 log10 K,C1CC1
4,5.94 log10 K,CCC(CC)(CC)CC

# Same assay, conditions: Methanol, 25 C
row,"log K of transfer, water to solvent",Compound
1,4.54 log10 K,CCC1CCCCC1
2,1.98 log10 K,CCCC(=O)CCC
3,4.78 log10 K,CCC(CC)(CC)CC

# Same assay, conditions: Perfluoroalkane, 25 C
row,"log K of transfer, water to solvent",Compound
1,4.14 log10 K,CCC1CCCCC1
2,1.44 log10 K,C1CC1

# Same assay, conditions: Propan-1-ol, 25 C
row,"log K of transfer, water to solvent",Compound
1,4.86 log10 K,CCC1CCCCC1
2,1.7 log10 K,C1CC1

# Same assay, conditions: Propan-2-ol, 25 C
row,"log K of transfer, water to solvent",Compound
1,4.85 log10 K,CCC1CCCCC1
2,1.71 log10 K,C1CC1

# Same assay, conditions: Propionitrile, 25 C
row,"log K of transfer, water to solvent",Compound
1,4.75 log10 K,CCC1CCCCC1

# Same assay, conditions: Tetrahydrofuran, 25 C
row,"log K of transfer, water to solvent",Compound
1,5.5 log10 K,CCC1CCCCC1
